#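 Cells were grown in 96-well plates and exposed to each compound for 48 hours at five concentrations; endpoints were interpolated linearly between bracketing concentrations, or set to the highest concentration if not reached. At the GI50, growth is halved. At the TGI there is no net growth.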
# How the values were obtained:
# Assay in all cases: inhibition of tumour cell growth, NCI panel, 48 h
# [1] = system: 786-0 renal
# [2] = system: A498 renal
# [3] = system: BT-549 breast
# [4] = system: M14 melanoma
# [5] = system: MCF7 breast
# [6] = system: MDA-MB-231 breast
# [7] = system: OVCAR-4 ovarian
# [8] = system: MDA-MB-435
# [9] = system: RXF 393 renal
# [10] = system: SK-MEL-2 melanoma
Structure (SMILES),TGI [1],TGI [2],TGI [3],TGI [4],TGI [5],TGI [6],TGI [7],TGI [8],TGI [9],TGI [10],GI50 [2],GI50 [3],GI50 [4],GI50 [5],GI50 [6],GI50 [8],GI50 [7],GI50 [9],GI50 [10]
O=C1N=C2SC(=S)NC(=S)N2NC12c1ccccc1-c1ccccc12,> 10 µM,6.58 µM,> 10 µM,> 10 µM,> 10 µM,> 10 µM,> 10 µM,,,,,,,,,,,,
Nc1nc(Cl)cc(NCC2(O)CC2)n1,> 100 µM,> 100 µM,> 100 µM,,> 100 µM,> 100 µM,> 100 µM,> 100 µM,> 100 µM,> 100 µM,,,,,,,,,
CC[C@H](Nc1nc(C)nc(N)c1C#N)c1nc2cccc(NCc3ccc(C(=O)NO)cc3)c2c(=O)n1-c1ccccc1,,2.93 µM,4.56 µM,5.85 µM,5.89 µM,3.36 µM,14.6 µM,3.74 µM,2.18 µM,5.51 µM,1.44 µM,1.93 µM,2.28 µM,2.07 µM,1.4 µM,1.93 µM,2.74 µM,0.866 µM,2.07 µM
N#C/C(=C/n1c(=S)[nH]c2ccc([N+](=O)[O-])cc21)C(N)=O,> 100 µM,,,> 100 µM,> 100 µM,> 100 µM,> 100 µM,> 100 µM,> 100 µM,> 100 µM,,,,,,,,,
CC(C)N1CC2CC(CN(C(=O)c3ccccc3)C2)C1,> 100 µM,> 100 µM,,> 100 µM,,,> 100 µM,,> 100 µM,> 100 µM,,,,,,,,,
Cc1ccc2c(c1)-c1c(C#N)c(N)nc(-c3ccc(Cl)cc3)c1CCS2(=O)=O,> 100 µM,> 60.5 µM,> 100 µM,> 100 µM,> 100 µM,> 100 µM,> 100 µM,> 79.2 µM,,> 100 µM,,,,,,,,,
C=C1N(C=O)C(C)(C)N(O)C1(C)C,> 100 µM,,,> 100 µM,> 100 µM,> 100 µM,> 100 µM,> 100 µM,> 100 µM,> 100 µM,,,,,,,,,
CCP(=O)(OC)C1=CCN(C(=O)OCC[Si](C)(C)C)CC1 (centres undefined),> 100 µM,> 100 µM,,> 100 µM,> 100 µM,> 100 µM,> 100 µM,> 100 µM,> 100 µM,> 100 µM,,,,,,,,,
COc1ccc2nc(/C(N)=C\C#N)ccc2c1,> 100 µM,,,> 100 µM,> 100 µM,> 100 µM,> 100 µM,> 100 µM,> 100 µM,> 100 µM,,,,,,,,,
COC(=O)C1=C(C(=O)OC)SC(=CC#CC=C2SC(C(=O)OC)=C(C(=O)OC)S2)S1,18.2 µM,34.7 µM,,> 76.2 µM,,,35.3 µM,,,64.3 µM,,,,,,,,,
CSc1cc(=O)n2c3ccccc3c3ccnc1c32,,> 100 µM,,,> 100 µM,,> 100 µM,,> 100 µM,> 100 µM,,,,,,,,,
CC1=NN(c2nc(N)nc(-c3sccc3N)n2)C(C)(C)C1,> 100 µM,> 100 µM,> 100 µM,> 100 µM,> 100 µM,> 100 µM,> 100 µM,> 100 µM,,,,,,,,,,,
Cc1ccc(C(=O)N/N=C(\N=Nc2ccccc2)c2ccc(N(C)C)cc2)cc1,> 100 µM,,> 100 µM,> 100 µM,> 100 µM,> 100 µM,> 100 µM,> 100 µM,,> 100 µM,,,,,,,,,
Cc1cc(C)c2c(=O)cc(-c3cccc(F)c3)[nH]c2n1,> 64.2 µM,> 26.9 µM,> 22 µM,> 100 µM,2.16 µM,4.17 µM,> 100 µM,,,,,,,,,,,,
S=C(N/N=C\C(=N/NC(=S)N1CCCCC1)c1ccccc1)N1CCCCC1,3.74 µM,3.18 µM,3.57 µM,3.61 µM,> 22.4 µM,,3.43 µM,3.68 µM,3.33 µM,,,,,,,,,,
C/C(Cl)=N\OC(=O)Nc1ccc(C)cc1,32.7 µM,32.9 µM,,30.9 µM,25.3 µM,37.5 µM,32.9 µM,,,33.1 µM,,,,,,,,,
CC(=O)OCC1OC(n2c(-c3ccccc3)c(N=Nc3ccccc3)c(C)c(C#N)c2=S)C(OC(C)=O)C(OC(C)=O)C1OC(C)=O (centres undefined),> 100 µM,,> 100 µM,> 100 µM,> 100 µM,> 100 µM,> 100 µM,> 100 µM,> 100 µM,> 100 µM,,,,,,,,,
CCc1c(CNc2ccc(C(=O)NC(CC(=O)O)C(=O)O)cc2)ccc2nc(N)nc(N)c12 (centres undefined),> 1000 µM,,> 1000 µM,> 1000 µM,> 1000 µM,> 1000 µM,> 1000 µM,> 1000 µM,> 1000 µM,> 1000 µM,,685 µM,,,> 1000 µM,,869 µM,> 1000 µM,> 1000 µM
COc1cc(-c2n/c(=C\c3c(O)[nH]c4ccc(Cl)cc34)cc3c2=Nc2ccccc2-3)ccc1F,,15.2 µM,3.84 µM,3.48 µM,3.26 µM,3.22 µM,3.48 µM,4.65 µM,3.29 µM,,3.16 µM,2.06 µM,1.89 µM,1.25 µM,1.56 µM,2.16 µM,1.74 µM,1.71 µM,
COc1ccc(OC2OC(CO)C(OCc3ccccc3)C(OCc3ccccc3)C2OCc2ccccc2)cc1 (centres undefined),> 100 µM,> 100 µM,> 100 µM,> 100 µM,> 100 µM,> 100 µM,,> 100 µM,,> 100 µM,,,,,,,,,
CC1C(NNc2ccccc2)Oc2cc3c(cc2C1c1ccccc1O)OCO3 (centres undefined),44.3 µM,29.2 µM,27.4 µM,11.2 µM,16.8 µM,28.7 µM,,12.5 µM,45.9 µM,25.6 µM,,,,,,,,,
O=P(O)(O)c1ccccc1Oc1ccccc1,> 100 µM,> 100 µM,> 100 µM,> 100 µM,> 100 µM,> 100 µM,,> 100 µM,> 100 µM,> 100 µM,,,,,,,,,
COc1cccc2c1C(=O)c1c(O)c3c(c(O)c1C2=O)C[C@H](O)C[C@@H]3OC1CC(N)C(O)C(C)O1 (some centres undefined),14.2 µM,4.5 µM,16 µM,,21.2 µM,6.05 µM,21.4 µM,8.05 µM,25 µM,5.41 µM,,,,,,,,,

# — PubChem BioAssay (NCI)
